Assay results from patent publication US12083101B2, “Biaryl derivatives as YAP/TAZ-TEAD protein-protein interaction inhibitors” (Novartis AG, priority 2020, dated 2024).
Like-named read-outs stand apart in the source and are kept apart here.

Assays:
[1] = target: Avi-humanTEAD4 217-434 / Cy5 labeled humanYAP 60-100 (Homo sapiens (Human), UniProt Q15561); assay: TR-FRET YAP-TEAD4 in-vitro biochemical assay; format: binding; details: 1 nM Avi-humanTEAD4 217-434, 20 nM Cy5-humanYAP 60-100, 1 h room temperature
Chain of Avi-humanTEAD4 217-434 / Cy5 labeled humanYAP 60-100 (Q15561 217-434): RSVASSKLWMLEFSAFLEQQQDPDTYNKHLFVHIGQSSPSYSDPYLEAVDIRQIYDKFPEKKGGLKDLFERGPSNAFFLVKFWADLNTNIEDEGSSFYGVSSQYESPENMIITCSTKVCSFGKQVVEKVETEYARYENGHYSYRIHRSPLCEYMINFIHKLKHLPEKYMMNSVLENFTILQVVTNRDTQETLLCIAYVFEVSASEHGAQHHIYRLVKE

MKN-45/Ubc-luc cells [2] = assay: Proliferation assay (resazurin), MKN-45; format: cell-based; details: 72 hours incubation
MKN-45/Ubc-luc cells [3] = assay: Reporter gene specificity control (Ubc-luciferase), MKN-45
Experimental: As a specificity control, MKN-45 cells were stably transduced with a Ubc-Luc reporter construct, in which constitutive expression of firefly luciferase is driven by the promoter of the ubiquitin C housekeeping gene.
Stock solutions of compounds were prepared at a concentration of 10 mM in DMSO and stored at 4° C. Where necessary to afford a full dose-response curve, the stock solutions were pre-diluted in DMSO to 1'000-fold the desired reduced start concentration. On the day after cell seeding, eleven 2-fold serial dilutions of each compound were dispensed directly into the cell assay plates using a HP 300D non-contact Digital Dispenser (TECAN, Mannedorf, Switzerland). The final concentration of DMSO was normalized to 0.1% in all wells.
The ability of compounds to inhibit YAP-dependent transcription was assessed in NCI-H2052 Tet-On shYAP_2371 pLenti6 MCAT_Luc cells, while specificity (lack of unspecific inhibition of luciferase expression of activity) was assessed in MKN-45/Ubc-luc cells. […] Following incubation for 24 hours at 37° C., compound-mediated modulation of reporter-gene activity was quantified 5 min after addition of 20 μl BrightGlo (Promega, Cat #E2620), by measuring luminescence intensity on a multi-mode plate-reader (TECAN, Männedorf, Switzerland, Integration time 100 ms). For data analysis, the assay background value determined in wells containing medium, but no cells, was subtracted from all data points. Dose-dependent compound effects were expressed as % of vehicle-treated control (luminescence signal produced by cells receiving DMSO only) and IC50s calculated using a four-parametric fit model.

[4] = test system: NCI-H2052 Tet-On shYAP_2371 pLenti6 MCAT_Luc cells (YAP-dependent transcription); assay: YAP reporter gene activity assay (MCAT-luciferase), NCI-H2052; format: cell-based; details: 24 hours incubation, BrightGlo luminescence
How it was run: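 NCI-H2052 cells carrying an MCAT-luciferase reporter and a tetracycline-inducible YAP 3′UTR shRNA were treated with eleven 2-fold compound dilutions (0.1% DMSO) for 24 h at 37 °C. BrightGlo luminescence was background-subtracted and expressed as % of DMSO control. IC50 came from a four-parameter fit; MKN-45/Ubc-luc cells served as the specificity counterscreen.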

[5] = test system: NCI-H2052 Tet-On shYAP_2371 pLenti6 MCAT_Luc cells; assay: Proliferation assay (resazurin), NCI-H2052; format: cell-based; details: 72 hours incubation
How it was run: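 The NCI-H2052 line carries a Tet-inducible shRNA against the YAP1 3′UTR and an MCAT luciferase reporter. The day after seeding, it received eleven 2-fold compound dilutions at 0.1% DMSO, and viability was read by resazurin fluorescence.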

[6] = Homo sapiens, MKN-45, 24 h, read-out: Reporter gene assay MKN-45 IC50 [μM], MKN-45/Ubc-luc cells (YAP deleted, specificity control), 24 hours incubation
[7] = read-out: Reporter gene assay MKN-45 IC50, MKN-45/Ubc-luc cells (YAP deleted, specificity control), 24 hours incubation

Row | SMILES | IC50 [1] | GI50 (MKN-45/Ubc-luc cells [2]; Homo sapiens) | IC50 (MKN-45/Ubc-luc cells [3]; [6]) | IC50 ([4]; Homo sapiens, NCI-H2052, 24 h) | GI50 ([5]; Homo sapiens, NCI-H2052, 72 h) | GI50 (MKN-45/Ubc-luc cells [2]) | IC50 (MKN-45/Ubc-luc cells [3]; [7]) | IC50 [4] | GI50 [5]
1 | NC(=O)c1ccc(OCCO)c(F)c1-c1c(Cl)c(F)cc2c1[C@H](O)[C@@](CNC1CCC1)(c1ccccc1)O2 (atropisomer, axis not shown) [Example 99, 2-((2S,3S,4S)-5-Chloro-2-((cyclobutylamino)methyl)-6-fluoro-3-hydroxy-2-phenyl-2,3-dihydrobenzofuran-4-yl)-3-fluoro-4-(2-hydroxyethoxy)benzamide] | 2 nM | > 10000 nM | > 10 µM | 23 nM | 26 nM | – | – | – | –
2 | CNC[C@]1(c2ccccc2)Oc2cc(F)c(Cl)c(-c3c(C(=O)NC)cnc(OCCO)c3F)c2[C@@H]1C (atropisomer, axis not shown) [Example 145, 4-((2S,3S,4S)-5-Chloro-6-fluoro-3-methyl-2-((methylamino)methyl)-2-phenyl-2,3-dihydrobenzofuran-4-yl)-5-fluoro-6-(2-hydroxyethoxy)-N-methylnicotinamide] | 5 nM | > 20000 nM | > 20 µM | 46 nM | 58 nM | – | – | – | –
3 | CNC[C@]1(c2cccc(O)n2)Oc2cc(F)c(Cl)c(-c3c(C(N)=O)ccc(OC)c3F)c2[C@@H]1C (atropisomer, axis not shown) [Example 125, 2-((2R,3S,4S)-5-Chloro-6-fluoro-2-(6-hydroxypyridin-2-yl)-3-methyl-2-((methylamino)methyl)-2,3-dihydrobenzofuran-4-yl)-3-fluoro-4-methoxybenzamide] | 11 nM | > 7500 nM | > 10 µM | 671 nM | 1180 nM | – | – | – | –
4 | NC(=O)c1ccc(OC(F)F)c(F)c1-c1c(Cl)c(F)cc2c1C[C@@](CN[C@H]1CC[C@H](O)CC1)(c1ccccc1)O2 (atropisomer, axis not shown) [Example 72, 2-((2S,4S)-5-chloro-6-fluoro-2-(((trans-4-hydroxycyclohexyl)amino)methyl)-2-phenyl-2,3-dihydrobenzofuran-4-yl)-4-(difluoromethoxy)-3-fluorobenzamide] | 2 nM | > 10000 nM | 9.8 µM | 39 nM | 72 nM | – | – | – | –
5 | CNC[C@]1(c2ccccc2)Oc2cc(F)c(Cl)c(-c3c(C(N)=O)ccc(OC)c3F)c2[C@@H]1CO (atropisomer, axis not shown) [Example 147, 2-((2S,3R,4S)-5-Chloro-6-fluoro-3-(hydroxymethyl)-2-((methylamino)methyl)-2-phenyl-2,3-dihydrobenzofuran-4-yl)-3-fluoro-4-methoxybenzamide] | 1 nM | > 3300 nM | > 3.3 µM | 11 nM | 5 nM | – | – | – | –
6 | CNC[C@]1(c2ccccc2)Oc2cc(F)c(Cl)c(-c3c(C(=O)NC)ccc(OC[C@H](C)O)c3F)c2[C@@H]1C (atropisomer, axis not shown) [Example 122, 2-((2S,3S,4S)-5-Chloro-6-fluoro-3-methyl-2-((methylamino)methyl)-2-phenyl-2,3-dihydrobenzofuran-4-yl)-3-fluoro-4-((S)-2-hydroxypropoxy)-N-methylbenzamide] | 6 nM | > 10000 nM | > 10 µM | 85 nM | 59 nM | – | – | – | –
7 | COc1ccc(C(=O)Nc2cccnc2)c(-c2c(Cl)ccc3c2C[C@@](CN)(c2ccccc2)O3)c1F (atropisomer, axis not shown) [Example 25, 2-((2S,4S)-2-(aminomethyl)-5-chloro-2-phenyl-2,3-dihydrobenzofuran-4-yl)-3-fluoro-4-methoxy-N-(pyridin-3-yl)benzamide] | 5 nM | > 10000 nM | > 10 µM | 106 nM | 145 nM | – | – | – | –
8 | C[C@H]1c2c(cc(F)c(Cl)c2-c2c(OCCO)ccc(F)c2F)O[C@]1(CN)c1ccccc1 (atropisomer, axis not shown) [Example 124, 2-(2-((2S,3S,4S)-2-(Aminomethyl)-5-chloro-6-fluoro-3-methyl-2-phenyl-2,3-dihydrobenzofuran-4-yl)-3,4-difluorophenoxy)ethan-1-ol] | 11 nM | > 10000 nM | > 10 µM | 1230 nM | 1070 nM | – | – | – | –
9 | COc1ccc(C(N)=O)c(-c2c(Cl)ccc3c2[C@H](O)[C@@](CN)(c2cccnc2OC)O3)c1F (atropisomer, axis not shown) [Example 91, 2-((2S,3S,4S)-2-(Aminomethyl)-5-chloro-3-hydroxy-2-(2-methoxypyridin-3-yl)-2,3-dihydrobenzofuran-4-yl)-3-fluoro-4-methoxybenzamide] | 22 nM | > 10000 nM | > 10 µM | 960 nM | 1930 nM | – | – | – | –
10 | CNC[C@]1(c2ccccc2)Oc2cc(F)c(Cl)c(-c3c(C(N)=O)ccc(OCCO)c3F)c2[C@@H]1C (atropisomer, axis not shown) [Example 110, 2-((2S,3S,4S)-5-Chloro-6-fluoro-3-methyl-2-((methylamino)methyl)-2-phenyl-2,3-dihydrobenzofuran-4-yl)-3-fluoro-4-(2-hydroxyethoxy)benzamide] | 1 nM | > 4000 nM | > 4 µM | 14 nM | 27 nM | – | – | – | –

Next, values leading:

Row | IC50 [1] | GI50 (MKN-45/Ubc-luc cells [2]; Homo sapiens) | IC50 (MKN-45/Ubc-luc cells [3]; [6]) | IC50 ([4]; Homo sapiens, NCI-H2052, 24 h) | GI50 ([5]; Homo sapiens, NCI-H2052, 72 h) | GI50 (MKN-45/Ubc-luc cells [2]) | IC50 (MKN-45/Ubc-luc cells [3]; [7]) | IC50 [4] | GI50 [5] | SMILES
11 | 75 nM | > 10000 nM | > 10 µM | 147 nM | 670 nM | – | – | – | – | CS(=O)(=O)[C@H]1CC[C@@H](NC[C@@]2(c3ccccc3)Cc3c(cc(F)c(Cl)c3-c3c(C(N)=O)ccc(OC(F)F)c3F)O2)CC1 [Example 54a, 2-((2S,4S)-5-Chloro-6-fluoro-2-((((cis)-4-(methylsulfonyl)cyclohexyl)amino)methyl)-2-phenyl-2,3-dihydrobenzofuran-4-yl)-4-(difluoromethoxy)-3-fluorobenzamide]
12 | 4 nM | – | – | – | – | > 10000 nM | > 10 µM | 23 nM | 28 nM | NC(=O)c1ccc(OCCO)c(F)c1-c1c(Cl)c(F)cc2c1C[C@@](CN[C@H]1C[C@@H](C(F)F)C1)(c1ccccc1)O2 (relative stereo) [Example 140a, 2-((2S,4S)-5-Chloro-2-((((cis)-3-(difluoromethyl)cyclobutyl)amino)methyl)-6-fluoro-2-phenyl-2,3-dihydrobenzofuran-4-yl)-3-fluoro-4-(2-hydroxyethoxy)benzamide]
13 | 2 nM | > 10000 nM | > 10 µM | – | 195 nM | – | – | 70 nM | – | CC(=O)NC1CCC(NC[C@@]2(c3ccccc3)Cc3c(cc(F)c(Cl)c3-c3c(C(N)=O)ccc(OC(F)F)c3F)O2)CC1 (single isomer, unassigned) [Example 56a]
14 | 4 nM | > 10000 nM | > 10 µM | 67 nM | 125 nM | – | – | – | – | CN(C)C(=O)C1CCC(NC[C@@]2(c3ccccc3)Cc3c(cc(F)c(Cl)c3-c3c(C(N)=O)ccc(OC(F)F)c3F)O2)CC1 (single isomer, unassigned) [Example 58a]
15 | 2 nM | – | – | – | – | > 10000 nM | > 10 µM | 45 nM | 68 nM | NC(=O)c1ccc(OC(F)F)c(F)c1-c1c(Cl)ccc2c1[C@H](O)[C@@](CN[C@H]1CC[C@H](O)CC1)(c1ccccc1)O2 (relative stereo) [Example 94a, 2-((2S,3S,4S)-5-chloro-3-hydroxy-2-((((trans)-4-hydroxycyclohexyl)amino)methyl)-2-phenyl-2,3-dihydrobenzofuran-4-yl)-4-(difluoromethoxy)-3-fluorobenzamide]
